Experimental data taken from article PMC6502695 (Natural product research, 2018).

Key:
Assay type in all cases: in vitro ADME
[1] = target: human SULT 1C4 (Homo sapiens, UniProt O75897); assay: Sulfating activity of purified human SULT1C4; conditions: substrate 10 μM, mean ± SD, three experiments
[2] = target: human SULT 1A2 (Homo sapiens, UniProt P50226); assay: Sulfating activity of purified human SULT1A2; conditions: substrate 10 μM, mean ± SD, three experiments
[3] = target: human SULT 1A1 (Homo sapiens, UniProt P50225); assay: Sulfating activity of purified human SULT1A1; conditions: substrate 10 μM, mean ± SD, three experiments
[4] = target: human SULT 1A3 (Homo sapiens, UniProt P0DMM9); assay: Sulfating activity of purified human SULT1A3
[5] = Sulfating activity of human small intestine cytosol; conditions: mean ± SD, three experiments
[6] = Sulfating activity of human liver cytosol; conditions: mean ± SD, three experiments
[7] = SULT 1A3, substrate 10 μM, mean ± SD, three experiments

Chain of human SULT 1A3 (P0DMM9 whole entry): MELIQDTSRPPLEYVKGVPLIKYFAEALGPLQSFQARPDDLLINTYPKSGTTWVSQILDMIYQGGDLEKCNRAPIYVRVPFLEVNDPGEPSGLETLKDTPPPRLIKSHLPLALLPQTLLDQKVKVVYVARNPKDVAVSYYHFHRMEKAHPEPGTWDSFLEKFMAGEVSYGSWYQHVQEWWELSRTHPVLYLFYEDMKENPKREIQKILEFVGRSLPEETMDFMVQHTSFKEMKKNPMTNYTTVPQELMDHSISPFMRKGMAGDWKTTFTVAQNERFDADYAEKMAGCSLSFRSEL
Chain of human SULT 1A2 (P50226 whole entry): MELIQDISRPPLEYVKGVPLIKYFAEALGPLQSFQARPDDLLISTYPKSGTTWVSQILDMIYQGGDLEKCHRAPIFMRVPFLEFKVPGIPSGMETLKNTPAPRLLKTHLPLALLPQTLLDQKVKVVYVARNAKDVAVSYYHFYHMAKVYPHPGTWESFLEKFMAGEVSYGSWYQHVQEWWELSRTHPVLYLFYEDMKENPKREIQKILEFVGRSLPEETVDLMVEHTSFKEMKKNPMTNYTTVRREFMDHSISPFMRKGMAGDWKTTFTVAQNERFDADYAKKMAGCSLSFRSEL
Chain of human SULT 1C4 (O75897 whole entry): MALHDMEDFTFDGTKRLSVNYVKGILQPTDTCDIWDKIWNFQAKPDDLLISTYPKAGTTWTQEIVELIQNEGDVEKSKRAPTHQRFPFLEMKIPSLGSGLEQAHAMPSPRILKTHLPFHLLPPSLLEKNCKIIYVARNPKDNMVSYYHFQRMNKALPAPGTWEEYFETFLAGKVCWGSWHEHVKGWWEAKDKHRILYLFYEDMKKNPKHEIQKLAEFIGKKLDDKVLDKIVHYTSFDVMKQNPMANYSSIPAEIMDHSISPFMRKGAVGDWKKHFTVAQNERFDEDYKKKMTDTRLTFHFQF
Chain of human SULT 1A1 (P50225 whole entry): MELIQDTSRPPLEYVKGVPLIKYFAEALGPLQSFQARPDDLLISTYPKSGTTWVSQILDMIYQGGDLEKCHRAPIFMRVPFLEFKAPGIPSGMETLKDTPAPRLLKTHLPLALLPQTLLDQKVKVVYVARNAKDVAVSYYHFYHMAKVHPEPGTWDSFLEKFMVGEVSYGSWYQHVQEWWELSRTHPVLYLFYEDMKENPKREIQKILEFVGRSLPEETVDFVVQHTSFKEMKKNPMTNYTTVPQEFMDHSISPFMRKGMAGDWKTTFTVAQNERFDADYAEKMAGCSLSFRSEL

SMILES	Specific Activity (nmol substrate sulfated/min/mg purified enzyme) [1] [nmol/min/mg]	Specific Activity (nmol substrate sulfated/min/mg purified enzyme) [2] [nmol/min/mg]	Specific Activity (nmol substrate sulfated/min/mg purified enzyme) [3] [nmol/min/mg]	Specific Activity (nmol substrate sulfated/min/mg purified enzyme) [4, 7] [nmol/min/mg]	Specific Activity (pmol substrate sulfated/min/mg protein) ([5]; substrate 10 μM) [pmol/min/mg]	Specific Activity (pmol substrate sulfated/min/mg protein) ([5]; substrate 50 μM) [pmol/min/mg]	Specific Activity (pmol substrate sulfated/min/mg protein) ([6]; substrate 10 μM) [pmol/min/mg]	Specific Activity (pmol substrate sulfated/min/mg protein) ([6]; substrate 50 μM) [pmol/min/mg]	Specific Activity (nmol substrate sulfated/min/mg purified enzyme) ([4]; human, 10 μM) [nmol/min/mg]
O=c1cc(-c2ccc(O)cc2)oc2cc(O)cc(O)c12 [Apigenin]	3.58 ± 0.09	7.90 ± 0.32	10.67 ± 0.99	6.38 ± 0.40	88.59 ± 1.07	113.24 ± 0.32	20.87 ± 5.39	25.04 ± 2.20	
COc1ccc([C@@H]2CC(=O)c3c(O)cc(O)cc3O2)cc1O [Hesperetin]	13.34 ± 0.49	28.16 ± 0.38	44.17 ± 1.16	29.80 ± 0.74	458.26 ± 11.82	643.61 ± 45.12	139.79 ± 6.87	181.73 ± 13.25	
O=C1C[C@@H](c2ccc(O)cc2)Oc2cc(O)cc(O)c21 [Naringenin]	11.99 ± 0.17	17.51 ± 0.31	24.85 ± 0.65		252.86 ± 13.22	354.21 ± 13.98	135.32 ± 15.67	156.97 ± 17.94	14.90 ± 0.15
